From patent US7968604B2, “Pharmaceutical composition for prevention and treatment of drug or alcohol addiction or bipolar disorder using sodium phenylbutyrate” (priority 2005, dated 2011)

Key:
Format in all cases: in vivo, Sprague-Dawley rats
[1] = system: cocaine-induced locomotor activity and rearing; assay: cocaine-induced (acute) locomotor activity and rearing in rats
Method: In order to examine effects of a pharmaceutical composition for prevention and treatment of drug or alcohol addiction or bipolar disorder containing sodium phenylbutyrate (PBA) in accordance with the present invention, the following animal experiments were carried out using Sprague-Dawley rats, weighing 250-275 g (upon arrival), (Samtaco Animal Breeding Company, Osan, Korea).
A bank of 12 activity boxes was used to measure locomotor activity of animals (Kim & Vezina, 1998). Each box (22×43×33 cm) estimated locomotor activity from photo beam interruptions. Rats were placed in the activity boxes for a 1-hour habituation period. Then, these rats were administered with the respective dosages of the pharmaceutical composition and were immediately placed again in the activity boxes, and locomotor activity and rearing activity of rats were measured for additional 2 hours. […] Rearing activity was also measured by counting upward/downward motion of rats via photo beams installed in the activity boxes. […]
Different concentrations (0.1, 1.0, 5.0 and 10.0 mg/kg) of sodium phenylbutyrate were intraperitoneally injected (acute) alone or in combination with cocaine (15 mg/kg) into rats, and locomotor activity and rearing of animals were measured for 2 hours. […]

[2] = system: amphetamine-induced locomotor activity; assay: amphetamine-induced (acute) locomotor activity in rats
Method: In order to examine effects of a pharmaceutical composition for prevention and treatment of drug or alcohol addiction or bipolar disorder containing sodium phenylbutyrate (PBA) in accordance with the present invention, the following animal experiments were carried out using Sprague-Dawley rats, weighing 250-275 g (upon arrival), (Samtaco Animal Breeding Company, Osan, Korea). A bank of 12 activity boxes was used to measure locomotor activity of animals (Kim & Vezina, 1998). Each box (22×43×33 cm) estimated locomotor activity from photo beam interruptions. Rats were placed in the activity boxes for a 1-hour habituation period. Then, these rats were administered with the respective dosages of the pharmaceutical composition and were immediately placed again in the activity boxes, and locomotor activity and rearing activity of rats were measured for additional 2 hours. […] Rearing activity was also measured by counting upward/downward motion of rats via photo beams installed in the activity boxes. […] Similar to Example 1, different concentrations (0.1, 1.0 and 10.0 mg/kg) of sodium phenylbutyrate were intraperitoneally injected (acute) alone or in combination with amphetamine (1.5 mg/kg) into rats, and locomotor activity of animals was measured for 2 hours. […]

[3] = system: amphetamine-induced behavioral sensitization; assay: amphetamine-induced behavioral sensitization (chronic) in rats
Method: In order to examine effects of a pharmaceutical composition for prevention and treatment of drug or alcohol addiction or bipolar disorder containing sodium phenylbutyrate (PBA) in accordance with the present invention, the following animal experiments were carried out using Sprague-Dawley rats, weighing 250-275 g (upon arrival), (Samtaco Animal Breeding Company, Osan, Korea). A bank of 12 activity boxes was used to measure locomotor activity of animals (Kim & Vezina, 1998). Each box (22×43×33 cm) estimated locomotor activity from photo beam interruptions. Rats were placed in the activity boxes for a 1-hour habituation period. Then, these rats were administered with the respective dosages of the pharmaceutical composition and were immediately placed again in the activity boxes, and locomotor activity and rearing activity of rats were measured for additional 2 hours. Specifically, a computer was adapted to count locomotion of rats via photo beams installed on the top/bottom and right/left of the activity boxes, and such locomotion behavior of rats was confirmed for two hours. Rearing activity was also measured by counting upward/downward motion of rats via photo beams installed in the activity boxes. […]

locomotor activity = locomotor activity after sodium phenylbutyrate alone daily for 7 days; conditions: rats, 0.1 and 1.0 mg/kg i.p. once a day for 7 days, measured day 1 and day 7
Method: In order to examine effects of a pharmaceutical composition for prevention and treatment of drug or alcohol addiction or bipolar disorder containing sodium phenylbutyrate (PBA) in accordance with the present invention, the following animal experiments were carried out using Sprague-Dawley rats, weighing 250-275 g (upon arrival), (Samtaco Animal Breeding Company, Osan, Korea). A bank of 12 activity boxes was used to measure locomotor activity of animals (Kim & Vezina, 1998). Each box (22×43×33 cm) estimated locomotor activity from photo beam interruptions. Rats were placed in the activity boxes for a 1-hour habituation period. Then, these rats were administered with the respective dosages of the pharmaceutical composition and were immediately placed again in the activity boxes, and locomotor activity and rearing activity of rats were measured for additional 2 hours. Specifically, a computer was adapted to count locomotion of rats via photo beams installed on the top/bottom and right/left of the activity boxes, and such locomotion behavior of rats was confirmed for two hours. Rearing activity was also measured by counting upward/downward motion of rats via photo beams installed in the activity boxes. […] On day 1 and day 7 of drug administration, locomotor activity of animals was measured. […]

**Q.** `O=C(O)CCCc1ccccc1` [sodium phenylbutyrate] was tested. Which “effect on increase in cocaine-induced locomotor activity and rearing” value ([1]; i.p. acute, 0.1, 1.0, 5.0 and 10.0 mg/kg with cocaine 15 mg/kg, measured 2 hours) did it give?
**A.** reduce an increase in cocaine-induced locomotor activity and rearing of rats in a dose-dependent manner

**Q.** And the “dose at which effects on cocaine-induced locomotor activity and rearing were greatest” value ([1]; i.p. acute, with cocaine 15 mg/kg)?
**A.** 1.0 mg/kg

**Q.** And the “effect on increase in amphetamine-induced locomotor activity” value ([2]; i.p. acute, 0.1, 1.0 and 10.0 mg/kg with amphetamine 1.5 mg/kg, measured 2 hours)?
**A.** decrease an increase in amphetamine-induced locomotor activity

**Q.** And the “dose range at which effects on amphetamine-induced locomotor activity were similarly exhibited” value ([2]; i.p. acute, with amphetamine 1.5 mg/kg)?
**A.** 0.1 to 10.0 mg/kg

**Q.** And the “effect on amphetamine-induced behavioral sensitization” value ([3]; rats, 0.1, 1.0 and 10.0 mg/kg with amphetamine 1.5 mg/kg four times at 2 to 3 day intervals, one-week withdrawal, amphetamine challenge)?
**A.** significant blocking effects against amphetamine-induced behavioral sensitization

**Q.** What about the “dose range at which blocking of behavioral sensitization was particularly strong” value ([3]; rats, repeated co-administration with amphetamine 1.5 mg/kg) of the same compound?
**A.** 0.1 to 1.0 mg/kg

**Q.** What about the “changes in locomotor activity on administration of sodium phenylbutyrate alone” value (locomotor activity) of the same compound?
**A.** does not result in any significant changes in locomotor activity of animals
